The values that follow come from paper PMC8003391, “QSAR-Based Virtual Screening of Natural Products Database for Identification of Potent Antimalarial Hits” (Biomolecules, 2021).

Molecules are shown by their SMILES. Read-outs that look alike come from different tables or passages of the source.

For one data set, the system named is P. falciparum 3D7. The experiment in a line: In vitro P. falciparum growth inhibition assay (SybrGreen), chloroquine-sensitive 3D7 strain. Type of data set: cell-based, Plasmodium falciparum. The note with it: for inhibition at 5 µM: 3D7, read-out: inhibition of parasite growth. Here is the method: (§1) Chloroquine-sensitive (3D7) and multi-drug-resistant (W2) P. falciparum strains were cultured following the candle jar method as described by Trager and Jensen. Briefly, parasites were maintained in RPMI 1640 medium supplemented with 10% A+ human plasma at 5% CO2 atmosphere. Ring stage synchronized cultures were obtained by two consecutive treatments with a 5% D-sorbitol solution [32] in 48 h intervals.
(§2) Parasite growth inhibition assays were conducted by distributing ring stage synchronized parasites at 2% hematocrit and 0.5% parasitemia in 96-well plates (NEST Biotechnology Co., Ltd., Wuxi, Jiangsu, China). Parasites were incubated in the presence of drugs in a two-fold 12-point serial dilution starting at 10 µM in duplicate. Chloroquine was used as an antimalarial standard. At the end of a 72 h incubation, parasitemia was determined by fluorescence reading at 490 nm excitation and 540 nm emission (BMG CLARIOstar, BMG Labtech Inc., Durham, NC, USA) using SybrGreen fluorescent dye as described by Hartwig et al.. Parasite growth inhibition was determined as a percentage relative to drug-free control. EC50 values were interpolated from log doses vs. inhibition curves in GraphPad Prism 6 (GraphPad, La Jolla, CA, USA).

Data set [1] has as its system P. falciparum W2. On the set-up: method as in PMID 25461309. The note with it: read-out: EC50 against multi-resistant strain; cited from earlier work.
Data set [2] relates to P. falciparum W2. Kind of data set: In vitro P. falciparum growth inhibition assay (SybrGreen), multi-drug-resistant W2 strain. Format: cell-based, Plasmodium falciparum. The note with it: for activity more potent than artesunate: W2, compared with artesunate EC50 = 5.7 nM. Here is the method:
as §1, §2

Data set [3] is described as follows: Cytotoxicity, MTT reduction assay. The note with it: human. Type of data set: cell-based. Here is the method:
Cytotoxicity of selected compounds was evaluated using the MTT reduction assay (3-[4,5-dimethyl-thiazol-2-yl]-2,5-diphenyltetrazolium chloride). Human hepatoma (HepG2) cells were cultured in Dulbecco’s Modified Eagle Medium supplemented with gentamycin (40 mg/L) and 10% heat-inactivated fetal bovine serum at 37 °C and 5% CO2. Cells were seeded in 96-well plates (NEST Biotechnology Co., Ltd., Wuxi, Jiangsu, China) at 10^5 cells per well and incubated in the presence of a serial dilution of the drugs starting at 100 µM. After 72 h of incubation, MTT was added to the wells. The optical density was measured at 570 nm (CLARIOStar, Labtech BMG Inc, Durham, NC, USA) and cell viability was expressed as a percentage relative to the untreated control. CC50 values were calculated by plotting a log dose vs. viability curve in GraphPad Prism 6 (GraphPad, La Jolla, CA, USA). The selectivity index (SI) of the compounds was determined by the expression:SI = (HepG2 CC50)/(Pf EC50), where HepG2 CC50 corresponds to the cytotoxic concentration of compounds in HepG2 cells and Pf EC50 relates to the 50% inhibitory concentration on P. falciparum 3D7 strain.
Background: Formazan colour is commonly taken as a measure of viable cells.

[4] abbreviates: Plasmodium falciparum, 3D7, 72 h, chloroquine-sensitive 3D7 strain, 72 h, SybrGreen, ± standard deviation, read-out: EC50 Pf3D7.
[5] abbreviates: chloroquine-sensitive 3D7 strain, 72 h, SybrGreen, ± standard deviation, read-out: EC50 Pf3D7.
[6] abbreviates: Plasmodium falciparum, W2, 72 h, multi-drug-resistant W2 strain, 72 h, SybrGreen, ± standard deviation, read-out: EC50 PfW2.
The mark [7] stands for this setting: multi-drug-resistant W2 strain, 72 h, SybrGreen, ± standard deviation, read-out: EC50 PfW2.
The mark [8] stands for this setting: HepG2 cells, 72 h, MTT, read-out: CC50 HepG2.
[9] abbreviates: Plasmodium falciparum, 3D7, 3D7, text value, read-out: EC50 against P. falciparum 3D7.
[10] abbreviates: Plasmodium falciparum, W2, W2, text value, read-out: EC50 against P. falciparum W2.

`C[C@H]1[C@H](OC(=O)CCC(=O)O)O[C@@H]2O[C@@]3(C)CC[C@H]4[C@H](C)CC[C@@H]1[C@@]24OO3` [Artesunate, reference compound]: the EC50 is 0.0016 µM in the data set with P. falciparum 3D7 (setting [4]) and 0.0057 µM with P. falciparum W2 [1].
For `CCN(CC)CCCC(C)Nc1ccnc2cc(Cl)ccc12` (stereo not drawn) [Chloroquine, reference compound], the EC50 in the data set on P. falciparum 3D7 (Plasmodium falciparum, 3D7, 72 h, read-out: EC50 Pf3D7) is 0.0079 µM; in the data set with P. falciparum W2 [2] (Plasmodium falciparum, W2, 72 h, read-out: EC50 PfW2), 0.147 ± 0.04 µM.
For the molecule `COc1ccccc1CNC(=O)C1CN2CCC1CC2Cn1cc(-c2cccc(N)c2)nn1` (stereo not drawn) [LDT-586], the EC50 is below 5 µM in the data set with P. falciparum 3D7 (setting [4]), 4.52 ± 0.91 µM in the data set with P. falciparum 3D7 (setting [5]), below 5 µM in the data set with P. falciparum W2 [2] (setting [6]) and 3.44 ± 1.3 µM in the data set with P. falciparum W2 [2] (setting [7]). The inhibition at 5 µM with P. falciparum 3D7 (Plasmodium falciparum, 72 h) is above 70%. Half-maximal cytotoxicity in data set [3] (CC50 at 72 h) was put at 98.6 µM.
As to `CCOC(=O)c1ccc2[nH]cc(C(=O)OCC)c(=O)c2c1` [LDT-588], the EC50 in the data set on P. falciparum 3D7 (setting [4]) is below 5 µM; with P. falciparum 3D7 (setting [5]) it was 3.84 ± 1.45 µM. Moreover, the inhibition at 5 µM with P. falciparum 3D7 (Plasmodium falciparum, 72 h) is above 70%. Further, the CC50 at 72 h in data set [3] (setting [8]) was found to be 67 ± 2.28 µM.
With `Cn1c(=O)[nH]c2nnc(-c3ccc(Cl)cc3)nc2c1=O` [LDT-592], the EC50 was 9.09 ± 3.74 µM in the data set with P. falciparum 3D7 (setting [4]) and 3.11 ± 0.54 µM in the data set with P. falciparum W2 [2] (setting [6]). Besides, the inhibition at 5 µM in the data set with P. falciparum 3D7 (Plasmodium falciparum, 72 h) was above 70%. In data set [3] (setting [8]), the CC50 at 72 h was 17 µM.
Regarding `COC(CNC(=O)CCC(=O)OC1OC2OC3(C)CCC4C(C)CCC(C1C)C24OO3)OC` (stereo not drawn) [LDT-597], the EC50 was 0.00054 µM in the data set on P. falciparum 3D7 (setting [9]) and 0.00056 µM in the data set with P. falciparum W2 [2] (setting [10]). In addition, the inhibition at 5 µM in the data set on P. falciparum 3D7 (Plasmodium falciparum, 72 h) was above 70%. In the data set on P. falciparum W2 [2], the “activity more potent than artesunate” value was “about 10 fold”. Moreover, the CC50 at 72 h in data set [3] (setting [8]) worked out at 18.3 ± 3.51 µM.
The corresponding values for `CC(NC(=O)CCCNC(=O)CCC(=O)OC1OC2OC3(C)CCC4C(C)CCC(C1C)C24OO3)C(=O)O` (stereo not drawn) [LDT-598] are 0.00078 µM, 0.00059 µM, above 70%, “about 10 fold” and 25.9 ± 1.13 µM.
As to `COc1ccc(C2c3[nH]c4ccccc4c3C[C@H]3C(=O)N(C4CC4)CC(=O)N23)cc1OC` (stereo partly drawn) [LDT-599], the EC50 with P. falciparum 3D7 (setting [4]) is below 5 µM; in the data set with P. falciparum 3D7 (setting [5]) it was 3.68 ± 1.92 µM; in the data set with P. falciparum W2 [2] (setting [6]), below 5 µM; in the data set on P. falciparum W2 [2] (setting [7]), 2.74 ± 0.78 µM. The inhibition at 5 µM with P. falciparum 3D7 (Plasmodium falciparum, 72 h) is above 70%. In addition, the CC50 at 72 h in data set [3] (setting [8]) was determined as 21 ± 2.51 µM.
On to `COc1cc(C2NCCc3cc(OC)c(OC)cc32)ccc1O` (stereo not drawn) [LDT-601], for which the figures for the EC50 in the data set on P. falciparum 3D7 (setting [4]) and in the data set on P. falciparum W2 [2] (setting [6]) were 6.61 ± 3.2 µM and 0.65 ± 0.47 µM, respectively. Also, the inhibition at 5 µM in the data set on P. falciparum 3D7 (Plasmodium falciparum, 72 h) was above 70%. Besides, the CC50 at 72 h in data set [3] (setting [8]) was determined as 21.8 ± 4.16 µM.
As for `COc1ccc(C2CC(=O)NC3=C2C(=O)C2(Oc4c(Cl)c(OC)cc(OC)c4C2=O)C(C)C3)cc1O` (stereo not drawn) [LDT-614], the EC50 in the data set with P. falciparum 3D7 (setting [4]) came to 5.26 ± 0.52 µM; in the data set with P. falciparum W2 [2] (setting [6]) it was 5.65 ± 3.11 µM. Also, in the data set on P. falciparum 3D7 (Plasmodium falciparum, 72 h), the inhibition at 5 µM was above 70%. Besides, the CC50 at 72 h in data set [3] (setting [8]) came to 23.6 ± 1.82 µM.

What is called EC50 is the midpoint of the concentration-response curve. In general, inhibition refers to the relative decrease from the control value, in per cent. The term CC50 denotes the concentration at which the toxic effect on the cells reaches its halfway point.
